In PubChem BioAssay (NCI):
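Protocol summary: plate cells (96-well), add compound at 5 concentrations, incubate 48 h, interpolate endpoints linearly. GI50 marks 50% less growth. At the TGI there is no net growth.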

Experiments:
Assay in all cases: NCI-60 cell line screen, 48 h
[1] = test system: MALME-3M melanoma
[2] = test system: KM12 colon
[3] = test system: UACC-257 melanoma
[4] = test system: HT29 colon
[5] = test system: T-47D breast
[6] = test system: DU-145 prostate
[7] = test system: CAKI-1 renal
[8] = test system: HS 578T breast
[9] = test system: SF-295 CNS
[10] = test system: RPMI-8226 leukemia
[11] = test system: SR leukemia
[12] = test system: SK-MEL-28 melanoma
[13] = test system: A498 renal
[14] = test system: PC-3 prostate
[15] = test system: M14 melanoma
[16] = test system: OVCAR-8 ovarian
[17] = test system: SN12C renal
[18] = test system: LOX IMVI melanoma
[19] = test system: SK-MEL-2 melanoma
[20] = test system: HOP-62 NSCLC
[21] = test system: SF-539 CNS
[22] = test system: SF-268 CNS
[23] = test system: HCT-116 colon
[24] = test system: NCI-H226 lung
[25] = test system: NCI/ADR-RES ovarian
[26] = test system: BT-549 breast
[27] = test system: UACC-62 melanoma
[28] = test system: MCF7 breast
[29] = test system: CCRF-CEM leukemia
[30] = test system: A549 NSCLC
[31] = test system: HL-60(TB) leukemia
[32] = test system: UO-31 renal
[33] = test system: EKVX NSCLC
[34] = test system: NCI-H23 lung
[35] = test system: SK-OV-3 ovarian
[36] = test system: NCI-H460 lung
[37] = test system: OVCAR-5 ovarian
[38] = test system: ACHN renal
[39] = test system: NCI-H522 lung
[40] = test system: SW-620 colon
[41] = test system: IGROV1 ovarian
[42] = test system: COLO 205 colon
[43] = test system: K-562 leukemia
[44] = test system: U251 CNS
[45] = test system: TK-10 renal
[46] = test system: MDA-MB-435
[47] = test system: SNB-75 CNS
[48] = test system: MDA-MB-231 breast
[49] = test system: HCC-2998 colon
[50] = test system: HCT-15 colon
[51] = test system: RXF 393 renal
[52] = test system: MOLT-4 leukemia
[53] = test system: SNB-19 CNS
[54] = test system: HOP-92 NSCLC
[55] = test system: OVCAR-4 ovarian
[56] = test system: 786-0 renal
[57] = test system: SK-MEL-5 melanoma

Q: Which results are given for O=C(NCCN1CCCC1)c1ccc(-c2nc3ccc4[nH]ncc4c3c3c2CCCC3)cc1?
A: GI50 [1]: 769 nM; TGI [1]: 1650 nM; GI50 [2]: 237 nM; TGI [2]: 2910 nM; GI50 [3]: 1050 nM; TGI [3]: 2440 nM; GI50 [4]: 996 nM; TGI [4]: 3510 nM; GI50 [5]: 1070 nM; TGI [5]: 6100 nM; GI50 [6]: 677 nM; TGI [6]: 5340 nM; GI50 [7]: 199 nM; TGI [7]: 4380 nM; GI50 [8]: 189 nM; TGI [8]: 1390 nM; GI50 [9]: 1060 nM; TGI [9]: 4160 nM; GI50 [10]: 871 nM; TGI [10]: 2270 nM; GI50 [11]: 94.1 nM; TGI [11]: 1900 nM; GI50 [12]: 919 nM; TGI [12]: 2680 nM; GI50 [13]: 193 nM; TGI [13]: 911 nM; GI50 [14]: 682 nM; TGI [14]: 2770 nM; GI50 [15]: 729 nM; TGI [15]: 1550 nM; GI50 [16]: 798 nM; TGI [16]: 3160 nM; GI50 [17]: 882 nM; TGI [17]: 4460 nM; GI50 [18]: 622 nM; TGI [18]: 1360 nM; GI50 [19]: 726 nM; TGI [19]: 1880 nM; GI50 [20]: 497 nM; TGI [20]: 2140 nM; GI50 [21]: 515 nM; TGI [21]: 1170 nM; GI50 [22]: 703 nM; TGI [22]: 1790 nM; GI50 [23]: 252 nM; TGI [23]: 2020 nM; GI50 [24]: 716 nM; TGI [24]: 5250 nM; GI50 [25]: 10700 nM; TGI [25]: 50000 nM; GI50 [26]: 384 nM; TGI [26]: 1160 nM; GI50 [27]: 1200 nM; TGI [27]: 5600 nM; GI50 [28]: 807 nM; TGI [28]: 4150 nM; GI50 [29]: 497 nM; TGI [29]: 3270 nM; GI50 [30]: 1090 nM; TGI [30]: 5540 nM; GI50 [31]: 978 nM; TGI [31]: 2320 nM; GI50 [32]: 1400 nM; TGI [32]: 6340 nM; GI50 [33]: 850 nM; TGI [33]: 5150 nM; GI50 [34]: 802 nM; TGI [34]: 2460 nM; GI50 [35]: 232 nM; TGI [35]: 2170 nM; GI50 [36]: 628 nM; TGI [36]: 1570 nM; GI50 [37]: 1390 nM; TGI [37]: 4440 nM; GI50 [38]: 1070 nM; TGI [38]: 5890 nM; GI50 [39]: 289 nM; TGI [39]: 1050 nM; GI50 [40]: 607 nM; TGI [40]: 3140 nM; GI50 [41]: 351 nM; TGI [41]: 4060 nM; GI50 [42]: 625 nM; TGI [42]: 1490 nM; GI50 [43]: 760 nM; TGI [43]: 3880 nM; GI50 [44]: 717 nM; TGI [44]: 2250 nM; GI50 [45]: 443 nM; TGI [45]: 7360 nM; GI50 [46]: 654 nM; TGI [46]: 3890 nM; GI50 [47]: 259 nM; TGI [47]: 1850 nM; GI50 [48]: 796 nM; TGI [48]: 2430 nM; GI50 [49]: 870 nM; TGI [49]: 2820 nM; GI50 [50]: 1910 nM; TGI [50]: 7430 nM; GI50 [51]: 241 nM; TGI [51]: 955 nM; GI50 [52]: 486 nM; TGI [52]: 2640 nM; GI50 [53]: 1130 nM; TGI [53]: 5060 nM; GI50 [54]: 99.7 nM; TGI [54]: 864 nM; GI50 [55]: 1050 nM; TGI [55]: 5080 nM; GI50 [56]: 580 nM; TGI [56]: 1350 nM; GI50 [57]: 1100 nM; TGI [57]: 2530 nM
